Source: PubChem BioAssay AID2060503 (Molecular Pharmacology Branch, DTP, NCI, 2025)
Where “and” joins values, the source holds several entries; their conditions need not be identical. Identical values can stand only once.

Tested on: 817829-284-R-J1-PDC complex spheroids, viability
Assay: Anticancer human tumor 817829-284-R-J1-PDC patient-derived colon adenocarcinoma cell line growth inhibition [GQUAD]
Details: for viability, T/C: stronger effect = lower value
Source text: DNA G-quadruplex Stabilizer Agents in Combinations in Complex Spheroids
A high-throughput screen of multi-cell type tumor spheroids was designed to identify active combinations of DNA G-quadruplex stabilizer agents and targeted small molecules. Complex spheroids include a stromal component modeled by human endothelial cells (HUVEC) and fibroblasts modeled by human mesenchymal stem cells (MSCs). The concentration ranges selected for each drug and investigational agent were based upon clinically achievable concentrations if the clinical Cmax of the agent was known.
Compounds. The drugs and investigational agents: pidnarulex (CX-5461; NSC782164), APTO-253 (NSC789042), BRACO-19 (NSC847499), peposertib (NSC802822), ceralasertib (NSC780249), elimusertib (NSC800525), camonsertib (NSC841442), AZD-1390 (NSC803789), olaparib (NSC753686), talazoparib (NSC767125), ART-558 (NSC835418), sotorasib (NSC818433), MRTX-1133 (NSC836407), SN-38 (NSC673596), topotecan (NSC609699), etoposide (NSC141540), doxorubicin (NSC123127), gemcitabine (NSC613327), 5-fluorouracil (NSC19893), paclitaxel (NSC125973), vemurafenib (NSC761431), panobinostat (NSC761190), R-306465 (JNJ-16241199; NSC773264), adavosertib (NSC754352), TP-3654 (NSC805149), carboplatin (NSC241240), KSQ-4279 (NSC840948), and staurosporine (NSC755774) were obtained from the National Cancer Institute (NCI) Developmental Therapeutics Program Chemical Repository (34). The FDA-approved anticancer drug set is available from the NCI Developmental Therapeutics Program. […] The stock solutions were prepared in dimethyl sulfoxide (DMSO, Sigma-Aldrich, St. Louis, MO, cat. D2650) at 800-fold the tested concentration and stored at -70 degrees C prior to their use. All drugs and investigational agents were tested over a range starting from a high concentration at or near the clinical Cmax and decreasing in half-log increments. If the clinical Cmax for an agent had not been determined, the highest concentration tested was 10 microM.
2.3 Cell Culture. All cells were maintained in an incubator at 37 degrees C and 5% CO2 with 95% humidity. The PDC lines were cultured according to standard operating procedures established by the NCI PDMR. All PDCs were thawed and cultured in Matrigel-coated flasks prepared with a working solution of 1X Ham's F-12 nutrient mix, without supplementation (Invitrogen, cat. 11765054), 100 U/mL penicillin-streptomycin (Invitrogen, cat. 15140122), and 2.5% Matrigel (Corning Inc., cat. 354248) for the first three passages. The 857933-349-R-J2-PDC line was cultured in 6C/Colon 1B media, which includes advanced DMEM/F-12 (Thermo Fisher Scientific, cat. 12634028), 10 mM HEPES (Thermo Fisher Scientific, cat. 15630080), 1X GlutaMAX supplement (Thermo Fisher Scientific, cat. 35050061), 0.1 mg/mL primocin (InvivoGen, cat. ant-pm-2), 10% defined fetal bovine serum, heat inactivated (HyClone Laboratories Inc., cat. SH30070.03HI), 50% L-WRN conditioned media (ATCC, cat. CRL-3276), 1.25 mM N-Acetyl-L-cysteine (Sigma-Aldrich, cat. A9165), 10 mM nicotinamide (Sigma-Aldrich, cat. N0636), 1X B-27 supplement (Thermo Fisher Scientific, cat. 17504044), 1X N-2 supplement (Thermo Fisher Scientific, cat. 17502048), 10 microM Y-27632 dihydrochloride (Tocris Bioscience, cat. 1254), and 50 ng/mL human EGF recombinant protein (Thermo Fisher Scientific, cat. PHG0311). The 485176-168-R4-J1-PDC line was cultured in Panc media, which includes all 6C/Colon 1B media components plus 100 ng/mL human FGF-10 (Thermo Fisher Scientific, cat. 100-26), 500 nM SB-431542 (Selleckchem, cat. S1067), and gastrin (Tocris, cat. 3006).
[…]

[1] = compound alone, run of 02/20/2024
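Also: spheroids exposed to agents for 7 days before readout.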
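For viability, T/C in this document: percent viability relative to DMSO vehicle control taken as 100%.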

Row | Compound | IC50 (curve of compound) | IC50 [1] | viability, T/C (compound 0.0316 µM) | viability, T/C (compound 0.1 µM) | viability, T/C (compound 0.316 µM) | viability, T/C (compound 1 µM) | viability, T/C (compound 3.16 µM) | viability, T/C (compound 10 µM) | viability, T/C (compound 0.000999 µM) | viability, T/C (compound 0.00316 µM) | viability, T/C (compound 0.00999 µM) | viability, T/C (compound 0.0999 µM)
1 | COc1cc(C2c3cc4c(cc3C(OC3OC5COC(C)OC5C(O)C3O)C3COC(=O)C23)OCO4)cc(OC)c1O (stereo not drawn) | 159 nM and 166 nM and 230 nM |  | 115% and 98.4% and 91% | 62% and 67.7% and 92.4% | 29.3% and 26.7% and 34.1% | 26.2% and 28.1% and 42.2% | 22.6% and 26.7% and 29.9% | 10.5% and 9.2% and 10.2% |  |  |  | 
2 | COc1ccc([C@@H](O)c2cc(-c3ncnc4cc(N5CCOCC5)ccc34)c(F)cc2Cl)nn1 | > 10000 nM and 6030 nM |  | 103% and 96.1% and 90.7% | 90.9% and 95.3% and 105% | 106% and 104% and 100% | 80.6% and 84.1% and 83.6% | 84.3% and 82.3% and 64.7% | 53.4% and 67.6% and 39.1% |  |  |  | 
3 | COc1ncnc(C2CC2)c1-c1ncc2cnn(Cc3ccc(-c4nc(C(F)(F)F)cn4C(C)C)cc3)c2n1 | > 10000 nM |  | 96.6% and 97.8% and 103% | 97.4% and 111% and 113% | 99.2% and 107% and 110% | 84.8% and 117% and 106% | 102% and 106% and 111% | 116% and 114% and 115% |  |  |  | 
4 | Cc1[nH]c2ccc(F)cc2c1-c1nc2c3cccnc3c3ncccc3c2[nH]1 |  | 3.3 µM [middle of 8 runs] |  | 103% [middle of 12 runs] | 106% [middle of 12 runs] | 99.8% [middle of 12 runs] |  |  |  |  |  | 
5 | Cc1[nH]c2ccccc2c1CCNCc1ccc(/C=C/C(=O)NO)cc1 | 45.8 nM and 48.8 nM and 33.7 nM |  | 73% and 78.2% and 52.8% |  | 0.17% and 0.23% and 0.08% |  |  |  | 110% and 93.9% and 106% | 101% and 100% and 86.5% | 127% and 124% and 113% | 3.77% and 5.53% and 6.09%
6 | Cc1cnc(CNC(=O)c2c(=O)c3ccc(N4CCCN(C)CC4)nc3n3c2sc2ccccc23)cn1 |  | 85.8 nM [middle of 11 runs] | 90.4% [middle of 12 runs] | 39.5% [middle of 12 runs] | 29.2% [middle of 12 runs] | 23.6% [middle of 12 runs] | 15.9% [middle of 12 runs] | 0.15% [middle of 8 runs] |  |  |  | 
7 | O=C(NO)c1cnc(N2CCN(S(=O)(=O)c3ccc4ccccc4c3)CC2)nc1 | 67.9 nM and 186 nM and 121 nM |  | 114% and 111% and 117% | 17.6% and 102% and 59% | 0.33% and 5.46% and 5.25% | 0.17% and 0.29% and 0.13% | 0.1% and 0.26% and 0.04% | 0.15% and 0.25% and 0.07% |  |  |  | 
8 | O=C(c1cc(Cc2n[nH]c(=O)c3ccccc23)ccc1F)N1CCN(C(=O)C2CC2)CC1 | > 10000 nM |  | 113% and 106% and 116% | 87.2% and 96.7% and 103% | 103% and 99% and 90.6% | 91% and 94.4% and 89.3% | 89.1% and 97.4% and 95.1% | 57.6% and 60.7% and 49% |  |  |  | 
9 | O=c1[nH]cc(F)c(=O)[nH]1 | 1540 nM and 1750 nM and 2140 nM |  | 97.6% and 102% and 99.2% | 94.3% and 91.8% and 102% | 127% and 111% and 106% | 59.1% and 63.2% and 70.3% | 39.4% (2×) and 42.5% | 30.5% and 32.8% and 30.7% |  |  |  | 

Further lines, with some results ahead:

Row | IC50 (curve of compound) | IC50 [1] | Compound | viability, T/C (compound 0.0316 µM) | viability, T/C (compound 0.1 µM) | viability, T/C (compound 0.316 µM) | viability, T/C (compound 1 µM) | viability, T/C (compound 3.16 µM) | viability, T/C (compound 10 µM) | viability, T/C (compound 0.000999 µM) | viability, T/C (compound 0.00316 µM) | viability, T/C (compound 0.00999 µM) | viability, T/C (compound 0.0999 µM)
10 | 84.7 nM and 99.1 nM and 82.1 nM |  | COc1cccc2c1C(=O)c1c(O)c3c(c(O)c1C2=O)CC(O)(C(=O)CO)CC3OC1CC(N)C(O)C(C)O1 (stereo not drawn) | 100% and 82% and 106% | 32.7% and 42.4% and 30.9% | 30.1% and 39% and 26.2% | 9.58% and 10.5% and 8.06% | 0.57% and 0.58% and 0.61% | 0.32% and 0.4% and 0.19% |  |  |  | 
11 | > 10000 nM |  | Cc1cccc(N(C)C(=O)C2C(O)CCN2c2nc(C)cc(C(F)(F)F)c2C#N)c1 (stereo not drawn) | 94.3% and 102% and 95.3% | 97.8% and 81.6% and 93.5% | 92.5% and 107% and 96.8% | 88.1% and 99% and 82.6% | 92.4% and 88.4% and 96.7% | 96.7% and 83.4% and 98.1% |  |  |  | 
12 | > 316 nM |  | Cn1ncnc1[C@H]1c2n[nH]c(=O)c3cc(F)cc(c23)N[C@@H]1c1ccc(F)cc1 | 91.3% and 82.8% and 82% |  | 72.2% and 75.2% and 66.5% |  |  |  | 111% and 90.3% and 92.1% | 86.5% and 83.5% and 92.8% | 106% and 112% and 101% | 83.5% and 82.1% and 84%
13 | < 31.6 nM |  | Nc1ccn(C2OC(CO)C(O)C2(F)F)c(=O)n1 (stereo not drawn) | 24.6% and 9.45% and 15.3% | 5.55% and 8% and 4.56% | 7.44% and 8.2% and 6.55% | 5.74% and 7.67% and 5.48% | 6.14% and 6.82% and 5.88% | 3.68% and 3.93% and 3.72% |  |  |  | 
